Measurements published in patent US9676997B2, “Compositions and methods for stabilizing luminogenic substrates” (Promega Corporation, priority 2014, dated 2017).

Experiments:
[1] = Stability of 1.25 mM coelenterazine in 50% ethanol and 50% propylene glycol with or without 225 mM ATT, HPLC and Arrhenius plots; format: physicochemical; settings: 225 mM ATT, over time at different temperatures
Protocol: The stability of coelenterazine in the presence and absence of ATT was measured over time at different temperatures. Specifically, 1.25 mM coelenterazine was present in a solution of 50% ethanol and 50% propylene glycol (i.e., the solution without ATT) or a solution of 50% ethanol and 50% propylene glycol with 225 mM ATT (i.e., the solution with ATT). These two solutions were incubated at −20° C., room temperature (RT), 40° C., or 60° C. and analyzed at 0 days, 1 day, 3 days, 7 days, 15 days, and 30 days.
(§1) Following incubation, high performance liquid chromatography (HPLC) was utilized to identify the components of the respective solutions at each time point. Specifically, an Agilent 1100 HPLC instrument was used and equipped with a quaternary pump, thermostatted autosampler and column compartment, and a G1311B diode-array detector. The column used was a Synergi-MAX-RP (Phenomenex, Torrance, Calif.) 100 AÅ 50×4.6 2.5 μm. The run on the HPLC was a gradient run with 0.1% TFA in water and acetonitrile. Absorbance was measured at 262 nanometers (nm). Standards of coelenterazine and its known degradants were run to confirm both the retention time and absorbance trace. 5 μl of each solution was injected and the retention time of coelenterazine was 3.9 minutes at room temperature.
(§2) The results of the HPLC analysis are shown below in Tables 1 and 2 and FIGS. 1A and 1B, in which the values are reported as relative peak area percentage at 262 nm (i.e., the lamba max of the substrate). […] In each of FIGS. 1A and 1B, diamond is 1.25 mM coelenterazine incubated over time with or without 225 mM ATT, respectively, at −20° C., triangle is 1.25 mM coelenterazine incubated over time with or without 225 mM ATT, respectively, at room temperature (RT), star is 1.25 mM coelenterazine incubated over time with or without 225 mM ATT, respectively, at 40° C., and cross is 1.25 mM coelenterazine incubated over time with or without 225 mM ATT, respectively, at 60° C.
From the HPLC analysis, the half-life of coelenterazine in the presence of ATT at 40° C. and 60° C. was calculated to be 23 days and 5 days, respectively, while the half-life of coelenterazine in the absence of ATT at 40° C. and 60° C. was calculated to be 9.5 days and 2 days, respectively (see Table 3 below).
Additionally, Arrhenius plots were generated for coelenterazine in the presence and absence of ATT to calculate the half-life of coelenterazine at various temperatures. The Arrhenius equation is as follows: […]
In FIG. 7, the slope was −8636.59, the intercept was 24.1199, and R^2 was 0.9983.
In FIG. 8, the slope was −7382.51, the intercept was 21.2598, and R^2 was 0.9570.

[2] = Stability of 1.25 mM coelenterazine-h in 50% ethanol and 50% propylene glycol with or without 225 mM ATT, HPLC and Arrhenius plots; format: physicochemical; settings: 225 mM ATT, over time at different temperatures
Protocol: The stability of coelenterazine-h in the presence and absence of ATT was measured over time at different temperatures. Specifically, 1.25 mM coelenterazine-h was present in a solution of 50% ethanol and 50% propylene glycol (i.e., the solution without ATT) or a solution of 50% ethanol and 50% propylene glycol with 225 mM ATT (i.e., the solution with ATT). These two solutions were incubated at −20° C., room temperature (RT), 40° C., or 60° C. and analyzed at for 0 days, 1 day, 3 days, 7 days, 15 days, and 30 days.
as §1, with “coelenterazine-h” for “coelenterazine”, “4.7” for “3.9”
as §2, with “Tables 4” for “Tables 1”, “and 5” for “and 2”, “FIGS. 2A” for “FIGS. 1A”, “and 2B,” for “and 1B,”, “mM coelenterazine-h” for “mM coelenterazine”
From the HPLC analysis, the half-life of coelenterazine-h in the presence of ATT at 40° C. and 60° C. was calculated to be 20 days and 5 days, respectively, while the half-life of coelenterazine-h in the absence of ATT at 20° C., 40° C. and 60° C. was calculated to be 24 days, 7.5 days and 2 days, respectively (see Table 6 below).
Additionally, Arrhenius plots were generated for coelenterazine-h in the presence and absence of ATT to calculate the half-life of coelenterazine-h at various temperatures. The Arrhenius equation is as follows: […]
In FIG. 9, the slope was −8131.2, the intercept was 22.6157, and R^2 was 0.9994.
In FIG. 10, the slope was −7310.53, the intercept was 21.4386, and R^2 was 0.9964.

## Cc1n[nH]c(=S)[nH]c1=O [ATT, 6-methyl-3-thioxo-3,4-dihydro-1,2,4-triazin-5(2H)-one]
[1]
  stabilization of coelenterazine against decomposition: stabilized coelenterazine against decomposition over time at different temperatures
[2]
  stabilization of coelenterazine-h against decomposition: stabilized coelenterazine-h against decomposition over time at different temperatures
